SMILES strings stand for the structures. pIC50: −log10 of the molar value.

For orientation: pIC50 means −log10 of the IC50, conventionally taken in molar units.

The target of one experiment is T1, human LXR alpha (Homo sapiens, UniProt Q13133).
T1 construct: human LXR alpha (aa 164 to 447); made in house; host or cells: E. coli BL21(pLysS)
T1 sequence (Q13133 164-447): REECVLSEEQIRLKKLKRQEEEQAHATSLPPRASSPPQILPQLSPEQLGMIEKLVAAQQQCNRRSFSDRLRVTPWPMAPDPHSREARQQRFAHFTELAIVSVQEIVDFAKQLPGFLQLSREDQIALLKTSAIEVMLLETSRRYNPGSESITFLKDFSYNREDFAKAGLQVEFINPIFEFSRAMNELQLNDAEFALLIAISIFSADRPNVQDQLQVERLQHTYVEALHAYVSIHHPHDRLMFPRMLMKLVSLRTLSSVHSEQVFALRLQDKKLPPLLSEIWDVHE
The experiment is described as follows: Radioligand binding assay (scintillation proximity), LXR alpha. The note with it: GST-LXR alpha-LBD on SPA beads, radioligand displacement; read-out: LXRalpha Binding IC50. From the text: (§1) Mammalian expression vectors were constructed to express full-length human LXR alpha and LXR beta. Bacterial expression vectors were constructed to produce glutathione-s-transferase (GST) fused to the ligand binding domains (LBD) of human LXR alpha (aa 164 to 447) and human LXR beta (aa 155 to 460). To accomplish this, the portions of the sequences encoding the LBDs were amplified from full-length clones by PCR and then subcloned into the plasmid vectors. Final clones were verified by DNA sequence analysis (Willy et al., Genes Dev. 1995, 9:1033-45; Song et al., Proc Natl Acad Sci USA. 1994, 91:10809-13).
(§2) Induction, expression, and purification of GST-LBD fusion proteins were performed in E. coli strain BL21(pLysS) cells by standard methods (Ref: Current Protocols in Molecular Biology, Wiley Press, edited by Ausubel et al).
(§3) LXR alpha and LXR beta receptor binding were assayed in buffer consisting of 50 mM HEPES, pH 7.4, 10 mM NaCl, 5 mM MgCl2. For each 96-well reaction, 500 ng of GST-LXR alpha-LBD or 700 ng of GST-LXR beta-LBD fusion proteins were bound to 80 μg or 40 μg SPA beads (Pharmacia Amersham) respectively, in a final volume of 50 μl by shaking. The resulting slurry was incubated for 1 h at RT and centrifuged for 2 min at 1300×g. The supernatant containing unbound protein was removed, and the semi-dry pellet containing the receptor-coated beads was re-suspended in 50 μl of buffer. Radioligand (eg. 100,000 dpm of (N-(2,2,2-trifluoroethyl)-N-[4-(2,2,2-trifluoro-1-hydroxy-1-trifluoromethylethyl)-phenyl]-benzenesulfonamide)) was added, and the reaction incubated at RT for 1 h in the presence of test compounds, and then scintillation proximity counting was performed. All binding assays were performed in 96-well plates and the amount of bound ligand was measured on a Packard TopCount using OptiPlates (Packard). Dose response curves were measured within a range of concentration from 10^−10 M to 10^−4 M.
A general note: SPA uses beads or plates that emit light when radiolabelled molecules are held near them.

Another experiment concerns the target T2, human LXR beta (Homo sapiens, UniProt P55055).
T2 construct: human LXR beta (aa 155 to 460); made in house; host or cells: E. coli BL21(pLysS)
T2 sequence (P55055 155-460): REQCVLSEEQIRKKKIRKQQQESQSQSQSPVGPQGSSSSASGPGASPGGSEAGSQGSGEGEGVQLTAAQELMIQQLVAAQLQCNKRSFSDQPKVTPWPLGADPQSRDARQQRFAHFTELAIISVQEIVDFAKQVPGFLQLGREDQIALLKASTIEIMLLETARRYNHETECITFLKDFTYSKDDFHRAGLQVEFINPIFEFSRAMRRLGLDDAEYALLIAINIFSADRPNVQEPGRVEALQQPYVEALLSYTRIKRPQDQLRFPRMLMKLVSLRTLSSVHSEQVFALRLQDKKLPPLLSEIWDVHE
The experiment is described as follows: Radioligand binding assay (scintillation proximity), LXR beta. The note with it: GST-LXR beta-LBD on SPA beads, radioligand displacement; read-out: LXRbeta Binding IC50.
Text: as §1, §2, §3

On to `COC(=O)c1ccc(OC(COc2ccc(C(O)(C(F)(F)F)C(F)(F)F)cc2)c2ccccc2)cc1` (racemic) [Example 11, rac 4-{1-Phenyl-2-[4-(2,2,2-trifluoro-1-hydroxy-1-trifluoromethyl-ethyl)-phenoxy]-ethoxy}-benzoic acid methyl ester], for which the figures for the negative-log IC50 (pIC50) on human LXR alpha and on human LXR beta were 7.03 and 7.85, respectively.

In the case of `OC(c1ccc(OCc2ccccc2)c(Cl)c1)(C(F)(F)F)C(F)(F)F` [Example 13, 2-(4-Benzyloxy-3-chloro-phenyl)-1,1,1,3,3,3-hexafluoro-propan-2-ol], the pIC50 at human LXR alpha and at human LXR beta was 6.63 in each case.

Take `Cc1oc(-c2cccc(Cl)c2)nc1COc1ccc(C(O)(C(F)(F)F)C(F)(F)F)cc1Cl` [Example 57, 2-{3-Chloro-4-[2-(3-chloro-phenyl)-5-methyl-oxazol-4-ylmethoxy]-phenyl}-1,1,1,3,3,3-hexafluoro-propan-2-ol]: the pIC50 on human LXR alpha was 7.48; on human LXR beta, 7.64.
